Assays:
Assay in all cases: NCI-60 one-dose assay
Assay type in all cases: cell-based
HOP-92 = conditions: Homo sapiens, HOP-92 (Non-Small Cell Lung Cancer), read-out: Cell Inhibition Percent
MCF7 = conditions: Homo sapiens, MCF7 (Breast Cancer), read-out: Cell Inhibition Percent
CAKI-1 = conditions: Homo sapiens, CAKI-1 (Renal Cancer), read-out: Cell Inhibition Percent
NCI/ADR-RES = conditions: Homo sapiens, NCI/ADR-RES (ovarian cancer), read-out: Cell Inhibition Percent
LOX IMVI = conditions: Homo sapiens, LOX IMVI (Melanoma), read-out: Cell Inhibition Percent
UACC-257 = conditions: Homo sapiens, UACC-257 (Melanoma), read-out: Cell Inhibition Percent
SK-MEL-2 = conditions: Homo sapiens, SK-MEL-2 (Melanoma), read-out: Cell Inhibition Percent
SN12C = conditions: Homo sapiens, SN12C (Renal Cancer), read-out: Cell Inhibition Percent
OVCAR-8 = conditions: Homo sapiens, OVCAR-8 (ovarian cancer), read-out: Cell Inhibition Percent
SK-MEL-28 = conditions: Homo sapiens, SK-MEL-28 (Melanoma), read-out: Cell Inhibition Percent
NCI-H226 = conditions: Homo sapiens, NCI-H226 (Non-Small Cell Lung Cancer), read-out: Cell Inhibition Percent
BT-549 = conditions: Homo sapiens, BT-549 (Breast Cancer), read-out: Cell Inhibition Percent
TK-10 = conditions: Homo sapiens, TK-10 (Renal Cancer), read-out: Cell Inhibition Percent
UACC-62 = conditions: Homo sapiens, UACC-62 (Melanoma), read-out: Cell Inhibition Percent
UO-31 = conditions: Homo sapiens, UO-31 (Renal Cancer), read-out: Cell Inhibition Percent
MDA-MB-435 = conditions: Homo sapiens, MDA-MB-435 (Melanoma), read-out: Cell Inhibition Percent
RPMI-8226 = conditions: Homo sapiens, RPMI-8226 (Leukemia), read-out: Cell Inhibition Percent
IGROV1 = conditions: Homo sapiens, IGROV-1, IGROV1 (ovarian cancer), read-out: Cell Inhibition Percent
NCI-H322M = conditions: Homo sapiens, NCI-H322M (Non-Small Cell Lung Cancer), read-out: Cell Inhibition Percent
SF-295 = conditions: Homo sapiens, SF-295 (CNS cancer), read-out: Cell Inhibition Percent
MDA-MB 231 = conditions: Homo sapiens, MDA-MB 231 (Breast Cancer), read-out: Cell Inhibition Percent
SR = conditions: Homo sapiens, SR (Leukemia), read-out: Cell Inhibition Percent
OVCAR-3 = conditions: Homo sapiens, OVCAR-3 (ovarian cancer), read-out: Cell Inhibition Percent
SK-OV-3 = conditions: Homo sapiens, SK-OV-3 (ovarian cancer), read-out: Cell Inhibition Percent
DU-145 = conditions: Homo sapiens, DU-145 (Prostate Cancer), read-out: Cell Inhibition Percent
KM12 = conditions: Homo sapiens, KM12 (Colon Cancer), read-out: Cell Inhibition Percent
COLO 205 = conditions: Homo sapiens, COLO 205 (Colon Cancer), read-out: Cell Inhibition Percent
U251 = conditions: Homo sapiens, U-251, U251 (CNS cancer), read-out: Cell Inhibition Percent
EKVX = conditions: Homo sapiens, EKVX (Non-Small Cell Lung Cancer), read-out: Cell Inhibition Percent

SMILES	inhibition at 10 µM (HOP-92) [%]	inhibition at 10 µM (MCF7) [%]	inhibition at 10 µM (CAKI-1) [%]	inhibition at 10 µM (NCI/ADR-RES) [%]	inhibition at 10 µM (LOX IMVI) [%]	inhibition at 10 µM (UACC-257) [%]	inhibition at 10 µM (SK-MEL-2) [%]	inhibition at 10 µM (SN12C) [%]	inhibition at 10 µM (OVCAR-8) [%]	inhibition at 10 µM (SK-MEL-28) [%]	inhibition at 10 µM (NCI-H226) [%]	inhibition at 10 µM (BT-549) [%]	inhibition at 10 µM (TK-10) [%]	inhibition at 10 µM (UACC-62) [%]	inhibition at 10 µM (UO-31) [%]	inhibition at 10 µM (MDA-MB-435) [%]	inhibition at 10 µM (RPMI-8226) [%]	inhibition at 10 µM (IGROV1) [%]	inhibition at 10 µM (NCI-H322M) [%]	inhibition at 10 µM (MDA-MB 231) [%]	also measured
O=C(NN=Cc1ccccc1)c1ccc2[nH]c(-c3ccc(Cl)cc3)nc2c1 [Compound 4a, N′-Benzylidene-2-(4-chlorophenyl)-1H-benzimidazole-5-carbohydrazide]	0	23.5	1.57	0	7.23	0	0	3.99	1.37	0	5.74	4.12	0	0	8.73	0	13.8	4.8	0	0	inhibition at 10 µM (SF-295): 13.2%; inhibition at 10 µM (SR): 18.1%; inhibition at 10 µM (OVCAR-3): 0%; inhibition at 10 µM (SK-OV-3): 4.7%; inhibition at 10 µM (DU-145): 3.83%; inhibition at 10 µM (KM12): 3.8%; inhibition at 10 µM (COLO 205): 0.76%; inhibition at 10 µM (U251): 4.35%; inhibition at 10 µM (EKVX): 1.38%
CN(C)c1ccc(C=NNC(=O)c2ccc3[nH]c(-c4ccc(Cl)cc4)nc3c2)cc1 [Compound 4b, N′-(4-(Dimethylamino)benzylidene)-2-(4-chlorophenyl)-1H-benzimidazole-5-carbohydrazide]	0	23.8	4.4	0.43	3.7	0	0	1.47	5.81	0	4.67	0	0	1.06	13.3	0	5.27	15	0.24	15.6	inhibition at 10 µM (SF-295): 1.06%; inhibition at 10 µM (SR): 2.54%; inhibition at 10 µM (OVCAR-3): 0%; inhibition at 10 µM (SK-OV-3): 0%; inhibition at 10 µM (DU-145): 0%; inhibition at 10 µM (KM12): 2.41%; inhibition at 10 µM (COLO 205): 0%; inhibition at 10 µM (U251): 0%; inhibition at 10 µM (EKVX): 2.85%
O=C(NN=Cc1ccc(Cl)cc1Cl)c1ccc2[nH]c(-c3ccc(Cl)cc3)nc2c1 [Compound 4f, N′-(2,4-Dichlorobenzylidene)-2-(4-chlorophenyl)-1H-benzimidazole-5-carbohydrazide]	0	13.4	9.61	0	18.9	6.59	2.9	1.23	17.1	0	18.8	0	0	0	27.8	0	15.4	31	0	11.4	inhibition at 10 µM (SF-295): 1.19%; inhibition at 10 µM (SR): 54.6%; inhibition at 10 µM (OVCAR-3): 0%; inhibition at 10 µM (SK-OV-3): 7.23%; inhibition at 10 µM (DU-145): 0%; inhibition at 10 µM (KM12): 1.75%; inhibition at 10 µM (COLO 205): 0%; inhibition at 10 µM (U251): 41%; inhibition at 10 µM (EKVX): 13.7%
O=C(N/N=C/c1ccc(O)cc1)c1ccc2[nH]c(-c3ccc(Cl)cc3)nc2c1 [Compound 4i, N′-(4-Hydroxybenzylidene)-2-(4-chlorophenyl)-1H-benzimidazole-5-carbohydrazide]	0	25.1	1.91	0	11.9	0	0	0	0	0	20.6	0	0	5.2	15.9	0	1.52	17	0.47	2.75	inhibition at 10 µM (SF-295): 0%; inhibition at 10 µM (SR): 2.26%; inhibition at 10 µM (OVCAR-3): 0%; inhibition at 10 µM (SK-OV-3): 5.09%; inhibition at 10 µM (DU-145): 0%; inhibition at 10 µM (KM12): 2.85%; inhibition at 10 µM (COLO 205): 0.44%; inhibition at 10 µM (U251): 0%; inhibition at 10 µM (EKVX): 0%
CCNC(=S)NNC(=O)c1ccc2[nH]c(-c3ccc(Cl)cc3)nc2c1 [Compound 5]	1.09	22.1	17.1	1.07	12.4	0	0	10.1	6.74	0	9.79	0	0	1.88	6.39	0.91	95.8	14.3	3.36	20.5	inhibition at 10 µM (SR): 88.9%; inhibition at 10 µM (OVCAR-3): 0%; inhibition at 10 µM (SK-OV-3): 0.37%; inhibition at 10 µM (DU-145): 0%; inhibition at 10 µM (KM12): 7.97%; inhibition at 10 µM (COLO 205): 0%; inhibition at 10 µM (U251): 2.36%; inhibition at 10 µM (EKVX): 18.2%
CCn1c(-c2ccc3[nH]c(-c4ccc(Cl)cc4)nc3c2)n[nH]c1=S [Compound 6, 4-ethyl-5-(2-(4-chlorophenyl)-1H-benzimidazol-5-yl)-2,4-dihydro-3H-1,2,4triazole-3-thione]	0.32	14.6	7.78	0	0	0	0	0	0	0	1.97	7.91	0	1.04	16.8	0	0.68	0.16	0	2.36	inhibition at 10 µM (SF-295): 0.56%; inhibition at 10 µM (SR): 17.5%; inhibition at 10 µM (OVCAR-3): 0%; inhibition at 10 µM (SK-OV-3): 0%; inhibition at 10 µM (DU-145): 0%; inhibition at 10 µM (KM12): 0%; inhibition at 10 µM (COLO 205): 0%; inhibition at 10 µM (U251): 0%; inhibition at 10 µM (EKVX): 0.44%

From article PMC10819888, “Benzimidazole-Based Derivatives as Apoptotic Antiproliferative Agents: Design, Synthesis, Docking, and Mechanistic Studies” (Molecules, 2024)
